What was measured:
Type in all cases: cell-based, human
[1] = tested on: day 6 hPSC-derived hemogenic endothelium; test: Differentiation of day 6 hemogenic endothelium into day 9 HSC-like cells (qPCR, flow cytometry); details: for expression of GATA1 and CD45RA: SR1 and UM171 applied together, days 6-9; for formation of hPSC-derived HSC-like cells: presence vs absence of both UM171 and SR1, 3 days, flow cytometry for CD45+ CD45RA- on day 9
Experimental: FIG. 13: Optimizing the generation of, and characterizing, hPSC-derived HSC-like cells. […] B) qPCR was performed during hPSC differentiation into HSC-like cells every 24 hours; gene expression was normalized such that undifferentiated hPSCs=1.0. […] D) Flow cytometry strategy to purify i) CD144^+ CD45^+ CD45RA^− hPSC-derived day-9 HSC-like cells and ii) CD34^+ CD90^+ cord blood HSPCs vs. CD34^+ CD90^− cord blood non-HSCs (expanded for 3 days ex vivo prior to FACS sorting) for transcriptional analysis.
Day 6-9 (HSC-like cell induction, 72 hours [Step 5b]). Day 6 hemogenic endothelium cells were briefly washed (DMEM/F12, Thermo Fisher) and then differentiated towards HSC-like cells in CDM3 media supplemented with Forskolin (10 μM), IL1β (5 ng/mL, R&D Systems), LIF (20 ng/mL), OSM (10 ng/mL), SB505124 (2 μM), SR1 (750 nM, Cellagen Technology) and UM171 (75 nM, ApexBio) for 72 hours. HSC-like cell induction media was refreshed every 24 hours.
Flow cytometry. Undifferentiated and differentiated hPSCs were dissociated by incubation in TrypLE Express (Gibco) for 5 minutes at 37° C. Subsequently, dissociated cells in TrypLE Express were diluted 1:10 in DMEM/F12 and centrifuged (pelleted) at 500 g for 5 minutes. Each cell pellet was resuspended in FACS buffer (PBS+1 mM EDTA [Invitrogen]+2% v/v FBS [Atlanta Bio]+1% Penicillin/Streptomycin [Gibco]) supplemented with fluorescently-conjugated primary antibodies, and antibody staining occurred for 30 minutes on ice protected from light. After staining, cells were washed twice with FACS buffer and resuspended in 200 μL FACS buffer with DAPI (1:10,000, Biolegend) for live/dead discrimination. Samples were run on a Beckman Coulter CytoFlex analyzer (Stanford Stem Cell Institute FACS Core). For data analysis, cells were gated based on forward and side scatter with height and width used for doublet discrimination. Subsequently, live cells that were negative for DAPI were gated for all marker analyses and calculations of population frequency.
Quantitative PCR. Undifferentiated or differentiated hPSCs were lysed in 350 μL of RLT Plus Buffer and RNA was extracted using the RNeasy Plus Mini Kit (Qiagen) according to the manufacturer's protocol. 300 ng of total RNA was reverse transcribed into cDNA for qPCR using the High-Capacity cDNA Reverse Transcription Kit (Applied Biosystems) according to the manufacturer's protocol. qPCR was performed in 384-well format as previously described (Loh et al., 2016), using gene-specific forward and reverse primers on a QuantStudio 5 qPCR machine (Thermo Fisher). Expression of all genes was normalized to the levels of the reference gene YWHAZ.

[2] = tested on: day 1 hPSC-derived primitive streak cells; test: Differentiation of day 1 primitive streak into trunk artery cells with RA agonists (qPCR, flow cytometry); details: for HOXA1-HOXA5 expression by day 3: RA agonist for 48 hours (days 2-3), qPCR; for formation of CD144+ CD43+ blood progenitors by day 9: RA agonist on days 2-3, then 6 further days of differentiation
Experimental: (§1) FIG. 4: Efficient generation of trunk artery and hemogenic endothelium from hPSCs within 3 and 6 days, respectively. A) Cartoon of the strategy to generate trunk artery, hemogenic endothelium and HSC-like cells. B) Retinoic acid (RA) signaling induces HOXA1-5 genes in hPSC-derived trunk artery cells; day 1 hPSC-derived primitive streak cells were differentiated into trunk artery cells over the course of 48 hours, in the presence or absence of an RA agonist (TTNPB). C) Flow cytometry (left) and qPCR (right) of hPSC-derived trunk artery cells; for the qPCR data, gene expression is normalized for each gene to undifferentiated hPSCs (gene expression levels in hPSCs=1.0); as a negative control, hPSC-derived artery cells (white bar, generated in the absence of RA agonist) is shown. D) hPSC-derived day-3 trunk artery cells were differentiated into hemogenic endothelium for 24 hours in the complete hemogenic endothelium medium (Forskolin, SB505124, OSM and LIF), or in media where either Forskolin was withheld; SB505124 was withheld; or both OSM and LIF were withheld.
FIG. 12: Optimizing the generation of trunk artery, hemogenic endothelium and HSC-like cells from hPSCs. A) Retinoic acid (RA) signaling induces HOXA1-5 genes in hPSC-derived trunk artery cells; day 1 hPSC-derived primitive streak cells were differentiated into trunk artery cells over the course of 48 hours, in the presence or absence of RA agonists (ATRA, AM580 or TTNPB) on day 2 alone (for 24 hours), day 3 alone (for 24 hours) or day 2-3 interval (for 48 hours) B) hPSC-derived trunk artery cells can be generated in defined conditions on a defined extracellular matrix (ECM); hPSCs were plated on Geltrex (an undefined ECM matrix); bulk laminin; or recombinant vitronectin or laminin-511. C) hPSCs were differentiated into day-3 artery cells (without RA agonist) or day-3 trunk artery cells (with RA agonist); and then were further differentiated over the course of 6 further days into day-9 HSC-like cells. […] G) qPCR of hPSC differentiation into trunk arteries (day 3) and their conversion into hemogenic endothelium (day 6); qPCR data are normalized such that for each gene, expression levels in undifferentiated hPSCs=1.0.
Day 2 (trunk dorsal lateral mesoderm induction, 24 hours [Step 2b]). Day 1 mid primitive streak cells were briefly washed (DMEM/F12, Thermo Fisher) and then differentiated towards dorsal lateral mesoderm in CDM2 media supplemented with BMP4 (40 ng/mL), GDC-0941 (2.5 μM, Cellagen Technology), Forskolin (10 μM, Tocris), SB-505124 (2 μM, Tocris), VEGF (100 ng/mL, R&D Systems), XAV939 (1 μM, Tocris), AA2P (200 μg/mL) and TTNPB (0.5 nM) for 24 hours (i.e., the same media as dorsal lateral mesoderm induction, with the addition of TTNPB). […]
(§2) Quantitative PCR. […]

[3] = tested on: hPSC-derived day-3 trunk artery cells; test: Differentiation of hPSC-derived day-3 trunk artery cells into hemogenic endothelium / HSC-like cells (qPCR, flow cytometry); details: 24 hours, OSM and LIF withheld together
Experimental: as §1
FIG. 12: Optimizing the generation of trunk artery, hemogenic endothelium and HSC-like cells from hPSCs. A) Retinoic acid (RA) signaling induces HOXA1-5 genes in hPSC-derived trunk artery cells; day 1 hPSC-derived primitive streak cells were differentiated into trunk artery cells over the course of 48 hours, in the presence or absence of RA agonists (ATRA, AM580 or TTNPB) on day 2 alone (for 24 hours), day 3 alone (for 24 hours) or day 2-3 interval (for 48 hours) B) hPSC-derived trunk artery cells can be generated in defined conditions on a defined extracellular matrix (ECM); hPSCs were plated on Geltrex (an undefined ECM matrix); bulk laminin; or recombinant vitronectin or laminin-511. C) hPSCs were differentiated into day-3 artery cells (without RA agonist) or day-3 trunk artery cells (with RA agonist); and then were further differentiated over the course of 6 further days into day-9 HSC-like cells. […]
as §2

[4] = tested on: day 1 hPSC-derived primitive streak; test: Dorsal lateral mesoderm induction from day 1 primitive streak (qPCR on day 2); details: day 2 of differentiation, 24 hours
Experimental: FIG. 1: Efficient generation of human primitive streak and dorsal lateral mesoderm from hPSCs. A) Chronology of artery and vein development in vivo within mouse embryos (top) and in vitro from human pluripotent stem cells (hPSCs; bottom). B) Efficient generation of MIXL1^+ mid primitive streak within 24 hours of hPSC differentiation, as assayed by flow cytometry of a MIXL1-GFP reporter hESC line C) In vivo identification of candidate dorsal lateral mesoderm: from a scRNAseq profile of the E7.0 mouse embryo, Hand1^+ Elf5^− lateral mesoderm was computationally identified and then sub-clustered; marker genes shown superimposed on t-SNE (top) and in violin plots (below [CPM: counts per million]). […]
as §2

CC(C)n1cnc2c(NCCc3ccc(O)cc3)nc(-c3csc4ccccc34)nc21 [SR1]
expression of GATA1 and CD45RA [1]: decreased
formation of hPSC-derived HSC-like cells [1]: enhanced

Cn1nnc(-c2ccc3c(c2)[nH]c2nc(Cc4ccccc4)nc(NC4CCC(N)CC4)c23)n1 (centres unmarked) [UM171]
expression of GATA1 and CD45RA [1]: decreased
formation of hPSC-derived HSC-like cells [1]: enhanced

C/C(=C\c1ccc(C(=O)O)cc1)c1ccc2c(c1)C(C)(C)CCC2(C)C [TTNPB]
HOXA1-HOXA5 expression by day 3 [2]: enhanced
formation of CD144+ CD43+ blood progenitors by day 9 [2]: promote

AM580
HOXA1-HOXA5 expression by day 3 [2]: enhanced
formation of CD144+ CD43+ blood progenitors by day 9 [2]: promote

IL1: inflammatory signal IL1β
blood formation in vitro ([1]; inflammatory signal added days 6-9): modestly promoted

LIF: GP130 agonist
RUNX1 expression by day 4 upon individual withdrawal of the agent from hemogenic endothelium medium [3]: reduced

VEGF
expression of SCL, LMO2 and FLI1 (dorsal lateral mesoderm specification) [4]: upregulated

Cc1cccc(-c2[nH]c(C(C)(C)C)nc2-c2ccc3c(c2)OCO3)n1 [SB505124, 2-[4-(1,3-Benzodioxol-5-yl)-2-(1,1-dimethylethyl)-1H-imidazol-5-yl]-6-methyl-pyridine]
RUNX1 expression by day 4 upon individual withdrawal of the agent from hemogenic endothelium medium [3]: reduced

B1: OSM: GP130 agonist (protein, UniProt P13725 26-221, looked up)
Oncostatin-M: AAIGSCSKEYRVLLGQLQKQTDLMQDTSRLLDPYIRIQGLDVPKLREHCRERPGAFPSEETLRGLGRRGFLQTLNATLGCVLHRLADLEQRLPKAQDLERSGLNIEDLEKLQMARPNILGLRNNIYCMAQLLDNSDTAEPTKAGRGASQPPTPTPASDAFQRKLEGCRFLHGYHRFMHSVGRVFSKWGESPNRSRR
RUNX1 expression by day 4 upon individual withdrawal of the agent from hemogenic endothelium medium [3]: reduced

B2: BMP: BMP agonist; BMP4 used in the experiments (protein, UniProt P12644 293-408, looked up)
Bone morphogenetic protein 4: SPKHHSQRARKKNKNCRRHSLYVDFSDVGWNDWIVAPPGYQAFYCHGDCPFPLADHLNSTNHAIVQTLVNSVNSSIPKACCVPTELSAISMLYLDEYDKVVLKNYQEMVVEGCGCR
expression of SCL, LMO2 and FLI1 (dorsal lateral mesoderm specification) [4]: upregulated

Source: patent publication US12680077B2, “Generating populations of human blood and blood vessel progenitors from pluripotent stem cells” (The Board of Trustees of the Leland Stanford Junior …, priority 2020, dated 2026)
